Assays:
Set-up in all cases: species or system Cell membrane
[1] = target: T1, Melatonin receptor type 1B (Homo sapiens, UniProt P49286); assay: Displacement of 2-[125I]iodomelatonin from human melatonin MT2 receptor stably expressing in human HEK293 cell membranes in presence of light-activated compounds by radioligand based competition binding assay
T1 sequence (P49286 whole entry): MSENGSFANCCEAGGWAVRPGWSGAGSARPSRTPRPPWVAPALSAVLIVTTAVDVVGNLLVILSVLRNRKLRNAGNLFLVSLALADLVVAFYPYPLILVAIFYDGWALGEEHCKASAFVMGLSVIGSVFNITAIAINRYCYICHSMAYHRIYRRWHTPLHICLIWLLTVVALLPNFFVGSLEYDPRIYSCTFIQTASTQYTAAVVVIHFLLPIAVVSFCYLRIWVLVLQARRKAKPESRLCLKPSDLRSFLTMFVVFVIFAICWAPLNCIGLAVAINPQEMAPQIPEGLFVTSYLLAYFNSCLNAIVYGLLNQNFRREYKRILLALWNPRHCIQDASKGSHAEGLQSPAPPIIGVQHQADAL

[2] = target: T2, Melatonin receptor type 1A (Homo sapiens, UniProt P48039); assay: Displacement of 2-[125I]iodomelatonin from human melatonin MT1 receptor stably expressing in human HEK293 cell membranes in presence of light-activated compounds by radioligand based competition binding assay
T2 sequence (P48039 whole entry): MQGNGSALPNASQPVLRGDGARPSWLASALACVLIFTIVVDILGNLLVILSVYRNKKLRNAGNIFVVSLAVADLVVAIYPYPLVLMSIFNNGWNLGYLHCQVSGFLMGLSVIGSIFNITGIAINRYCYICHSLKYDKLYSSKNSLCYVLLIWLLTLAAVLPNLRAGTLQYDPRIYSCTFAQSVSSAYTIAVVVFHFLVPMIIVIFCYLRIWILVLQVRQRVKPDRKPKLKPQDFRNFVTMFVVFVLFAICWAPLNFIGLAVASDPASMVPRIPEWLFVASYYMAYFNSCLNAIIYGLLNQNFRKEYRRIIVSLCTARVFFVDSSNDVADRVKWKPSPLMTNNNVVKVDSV

[3] = target: T1, Melatonin receptor type 1B; assay: Displacement of 2-[125I]iodomelatonin from human melatonin MT2 receptor stably expressing in human HEK293 cell membranes under dark condition by radioligand based competition binding assay
[4] = target: T2, Melatonin receptor type 1A; assay: Displacement of 2-[125I]iodomelatonin from human melatonin MT1 receptor stably expressing in human HEK293 cell membranes under dark condition by radioligand based competition binding assay

For `COc1ccc2c(c1)c(CCNC(C)=O)cn2C(=O)OCc1cc(OC)c(OC)cc1[N+](=O)[O-]`, the Ki [1] was 6.92 nM, the Ki [2] was 7.76 nM and the Ki [3] was 39.8 nM. The Ki [4] was 51.3 nM.

Source: ChEMBL document CHEMBL5137083 (J Med Chem, 2022)
